Data as given in patent US20110263564A1, “PYRIDINE, BICYCLIC PYRIDINE AND RELATED ANALOGS AS SIRTUIN MODULATORS” (Sirtris Pharmaceuticals, Inc., priority 2008, published 2011).

Molecular target: T1, SIRT1 (Homo sapiens, UniProt Q96EB6)
T1 sequence (Q96EB6 1-747): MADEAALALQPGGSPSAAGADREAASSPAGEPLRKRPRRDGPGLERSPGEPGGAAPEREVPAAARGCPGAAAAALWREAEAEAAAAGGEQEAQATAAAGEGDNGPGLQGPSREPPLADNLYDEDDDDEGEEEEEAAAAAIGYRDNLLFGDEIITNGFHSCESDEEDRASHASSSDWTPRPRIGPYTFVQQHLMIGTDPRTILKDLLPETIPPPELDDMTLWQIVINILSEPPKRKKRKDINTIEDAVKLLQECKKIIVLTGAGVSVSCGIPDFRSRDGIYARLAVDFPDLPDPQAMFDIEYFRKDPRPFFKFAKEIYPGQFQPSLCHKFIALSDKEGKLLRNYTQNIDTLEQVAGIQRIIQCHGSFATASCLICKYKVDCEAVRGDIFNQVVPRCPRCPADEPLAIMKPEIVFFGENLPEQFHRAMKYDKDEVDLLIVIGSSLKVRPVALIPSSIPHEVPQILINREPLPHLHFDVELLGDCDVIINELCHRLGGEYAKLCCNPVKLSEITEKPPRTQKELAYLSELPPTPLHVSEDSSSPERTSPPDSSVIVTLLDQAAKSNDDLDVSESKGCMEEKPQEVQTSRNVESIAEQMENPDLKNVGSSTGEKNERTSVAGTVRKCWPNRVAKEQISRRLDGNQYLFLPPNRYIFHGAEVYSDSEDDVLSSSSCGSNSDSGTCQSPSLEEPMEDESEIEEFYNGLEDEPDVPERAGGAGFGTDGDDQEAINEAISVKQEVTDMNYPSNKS
Test: Mass spectrometry based assay of SIRT1 activity (deacetylation of a p53-based acetylated peptide)
Type: biochemical
Settings: 10 nM SIRT1, 0.5 μM peptide substrate, 120 μM βNAD+, 25 minutes at 25° C.; for Emax: read-out: % FOLD ACT. (percent maximum fold activation)
Excerpt: A mass spectrometry based assay was used to identify modulators of SIRT1 activity. The mass spectrometry based assay utilizes a peptide having 20 amino acid residues as follows: Ac-EE-K(biotin)-GQSTSSHSK(Ac)NleSTEG-K(5TMR)-EE-NH2 (SEQ ID NO: 1) wherein K(Ac) is an acetylated lysine residue and Nle is a norleucine. The peptide is labeled with the fluorophore 5TMR (excitation 540 nm/emission 580 nm) at the C-terminus. The sequence of the peptide substrate is based on p53 with several modifications. In addition, the methionine residue naturally present in the sequence was replaced with the norleucine because the methionine may be susceptible to oxidation during synthesis and purification.
The mass spectrometry assay is conducted as follows: 0.5 μM peptide substrate and 120 μM βNAD^+ is incubated with 10 nM SIRT1 for 25 minutes at 25° C. in a reaction buffer (50 mM Tris-acetate pH 8, 137 mM NaCl, 2.7 mM KCl, 1 mM MgCl2, 5 mM DTT, 0.05% BSA). Test compounds may be added to the reaction as described above. […] After the 25 minute incubation with SIRT1, 10 μL of 10% formic acid is added to stop the reaction. Reactions are sealed and frozen for later mass spec analysis. Determination of the mass of the substrate peptide allows for precise determination of the degree of acetylation (i.e. starting material) as compared to deacetylated peptide (product).
A control for inhibition of sirtuin activity is conducted by adding 1 μL of 500 mM nicotinamide as a negative control at the start of the reaction (e.g., permits determination of maximum sirtuin inhibition). A control for activation of sirtuin activity is conducted using 10 nM of sirtuin protein, with 1 μL of DMSO in place of compound, to determine the amount of deacetylation of the substrate at a given timepoint within the linear range of the assay. This timepoint is the same as that used for test compounds and, within the linear range, the endpoint represents a change in velocity.
For the above assay, SIRT1 protein was expressed and purified as follows. […] The protein was expressed by induction with 1 mM IPTG as an N-terminal His-tag fusion protein at 18° C. overnight and harvested at 30,000×g. Cells were lysed with lysozyme in lysis buffer (50 mM Tris-HCl, 2 mM Tris[2-carboxyethyl]phosphine (TCEP), 10 μM ZnCl2, 200 mM NaCl) and further treated with sonication for 10 min for complete lysis. The protein was purified over a Ni-NTA column (Amersham) and fractions containing pure protein were pooled, concentrated and run over a sizing column (Sephadex S200 26/60 global). The peak containing soluble protein was collected and run on an Ion-exchange column (MonoQ). Gradient elution (200 mM-500 mM NaCl) yielded pure protein. This protein was concentrated and dialyzed against dialysis buffer (20 mM Tris-HCl, 2 mM TCEP) overnight. The protein was aliquoted and frozen at −80° C. until further use.
Sirtuin modulating compounds that activated SIRT1 were identified using the assay described above and are shown below in Table 1 for compounds of Formula (III)). The EC1.5 values represent the concentration of test compounds that result in 150% activation of SIRT1. The EC1.5 values for the activating compounds in Table 1 are represented by A (EC1.5<10.0 μM), B (EC1.5 10-25 μM), C (EC1.5>25 μM). The percent maximum fold activation is represented by A (Fold activation>200%) or B (Fold Activation<200%); “NT” means not tested; “ND” mean not determinable.

| SMILES | EC1.5 (concentration of test compound that results in 150% activation of SIRT1) | Emax |
| --- | --- | --- |
| O=C(NC1CCCc2ccc(-c3ccc(F)c(C(F)(F)F)c3)nc21)c1cnccn1 (centres unmarked) [Compound 254] | A (EC1.5<10.0 μM) | < 200% |
| O=C(NC1CCCc2ccc(-c3ccncc3)nc21)c1cnccn1 (centres unmarked) [Compound 247] | C (EC1.5>25 μM) |  |
| Cc1ccc(-c2ccc3c(n2)C(NC(=O)c2cnccn2)CCC3)cn1 (centres unmarked) [Compound 248] | C (EC1.5>25 μM) |  |
| O=C(NC1CCOc2ccc(-c3cccc(C(F)(F)F)c3)nc21)c1cnccn1 (centres unmarked) [Compound 224] | C (EC1.5>25 μM) |  |
| CC(C(=O)Nc1cnccn1)c1cccc(-c2cccc(C(F)(F)F)c2)n1 (centres unmarked) [Compound 214, N-2-pyrazinyl-2-{6-[3-(trifluoromethyl)phenyl]-2-pyridinyl}propanamide] | C (EC1.5>25 μM) |  |
| O=C(NC1CCCc2ccc(-c3cccc(C(F)(F)F)c3)nc21)c1cccnc1 (centres unmarked) [Compound 232] | C (EC1.5>25 μM) | < 200% |
| O=C(Nc1cccc(CN2CCOCC2)n1)C1CCCc2ccc(-c3cccc(C(F)(F)F)c3)nc21 (centres unmarked) [Compound 297] | C (EC1.5>25 μM) |  |
| CS(=O)(=O)c1cccc(-c2ccc3c(n2)C(NC(=O)c2cnccn2)CCC3)c1 (centres unmarked) [Compound 250] | C (EC1.5>25 μM) |  |
| O=C(Nc1cccnc1)C1CCCc2ccc(-c3cccc(C(F)(F)F)c3)nc21 (centres unmarked) [Compound 285] | C (EC1.5>25 μM) |  |
| CC(C)c1cccc(-c2cccc(C(C)NC(=O)c3cscn3)n2)c1 (centres unmarked) [Compound 201] | C (EC1.5>25 μM) | < 200% |
| O=C(NC1CCOCC1)C1CCCc2ccc(-c3cccc(C(F)(F)F)c3)nc21 (centres unmarked) [Compound 287] | C (EC1.5>25 μM) |  |
